US7166581B1, “Treatment of chemotherapeutic agent and antiviral agent toxicity with acylated pyrimidine nucleosides” (Wellstat Therapeutics Corporation, priority 1987, dated 2007)

What was measured:
[1] = system: hematopoietic system (5-FU toxicity); test: Acyl derivatives of uridine i.p. vs bone marrow toxicity of 5-FU (Example 3); type: in vivo, female Balb/C mice; details: for Spleen weights: day eleven after 5-FU, in mg; for Spleen weight: day seven after 5-FU 150 mg/kg i.p., i.p. doses equimolar to uridine 300 mg/kg/treatment; for HCT % / Lym / Neut / RBC / WBC: eleven days after 5-FU
Procedure: Ninety-eight female Balb/C mice weighing approximately 20 grams each were given a one-time 150 mg/kg injection (i.p.) of 5-FU at 1 p.m. on the initial day of the study. […] All of these doses are equimolar, and were administered in a volume of 0.4 ml by i.p. injection. The groups were treated at 3:30, 6:00, and 8:30 p.m. on the initial day with their respective agents. […] On days seven and eleven following 5-FU administration, blood (0.2–0.3 ml) was collected from seven mice in each group by retro-orbital bleeding into EDTA for subsequent differential blood cell counting. Mice were sacrificed by cervical dislocation; their right femurs removed and the contents expelled for cell counting; and their spleens removed and weighed.

[2] = system: hematopoietic system (5-FU toxicity); test: Octanoyluridine vs hematological toxicity of 5-FU (Example 3A); type: in vivo, Balb/C female mice; details: seven days after 5-FU 75 mg/kg i.p.; Oct-U 100 mg/kg/treatment i.p.
Procedure: Fourteen Balb/C female mice weighing approximately 20 grams each were given a one-time 75 mg/kg i.p. injection of 5-FU at 11:00 a.m. on the initial day of the study. Half of these animals were subsequently treated with Oct-U (100 mg/kg/treatment, i.p.), while the other half (controls) were injected with physiological saline. Administration of Oct-U and saline occurred at 2:30, 4:30, and 7:00 p.m. on the initial day, and at 9:30 a.m., 12:00 noon, 2:30, and 5:00 p.m the following day. An additional group of seven mice (basals) received no 5-FU and no treatments.

[3] = Toxicity of oral tegafur with TAU or uracil: body weight and blood cell counts (Example 13); type: in vivo, mice; details: alone or with uracil or TAU 4:1 molar
Procedure: Triacetyluridine (TAU), like other acyl derivatives of uridine and cytidine of the invention, is converted to uridine and uracil during and after absorption into the bloodstream; when present at the same time as 5-FU, both uridine and uracil are capable of potentiating 5-FU cytotoxicity. Therefore, the cytotoxicity of oral tegafur+uracil versus tegafur+TAU was assessed. Blood cell counts were utilized as an index of cytotoxicity of 5-FU in the circulation (and by extension, of antitumor potency). Body weight loss was used as an index of gastrointestinal toxicity.
Three groups of mice received tegafur by oral intubation in a dose of 400 mg/kg per mouse. The initial body weight of mice in each group was 19.0±0.6 grams. One of these groups also received uracil in a molar ratio of 4:1 to the tegafur dose, and another group received TAU, also in a 4:1 molar ratio to tegafur. Body weights were monitored. Six days after tegafur administration, blood samples were taken for differential cell counts.
All drugs were administered orally in a single dose. Blood samples were taken for cell counts 6 days after drug administration; body weights were also recorded at this time.

[4] = system: hematopoietic system (AZT toxicity); test: DAdC or THU vs hematopoietic damage by i.p. AZT in Balb/C mice (Example 11); type: in vivo, female Balb/C mice; details: for Total neutrophil counts: day thirteen, AZT + DAdC 300 mg/kg p.o. or THU […] i.p. three times daily
Procedure: AZT (100 mg/kg i.p.) was given three times daily at 9 a.m., 4 p.m., and 10 p.m. to twenty-one female Balb/C mice weighing approximately 20 grams each. […] Treatment volume was 0.2 ml. One group of seven mice was not given AZT or any treatment (basal).
(§1) On day thirteen blood (0.2–0.3 ml) was collected from mice in each group by retro-orbital bleeding-into EDTA for subsequent differential blood cell counting, including reticulocytes. The animals were then sacrificed by cervical dislocation; their right femurs removed and the contents expelled for cell counting; and their spleens removed and weighed.

[5] = system: CD8F1 spontaneous mammary adenocarcinoma; test: TAU/uridine rescue with 5-FU alone in tumor-bearing mice (Example 5); type: in vivo
Procedure: Sixty CD8F1 (BALB/C×[…]) female mice with first generation transplants of CD8F1 spontaneous mammary adenocarcinoma were treated with a weekly chemotherapy regimen which included a single dose of 5-FU (150 mg/kg) followed by various rescue strategies. The average tumor size was 157 mg at the start of the chemotherapy. The weekly chemotherapy course was completed three times.
In order to evaluate the various rescue therapies, the animals were divided into six groups of ten animals each as follows: […]

[6] = system: hematopoietic system (Ara-C toxicity); test: DAdC or PdC vs hematopoietic toxicity of arabinosyl cytosine (Example 7); type: in vivo, Balb/C female mice; details: Ara-C 100 mg/kg i.p. daily for five days; DAdC 411 mg/kg p.o. or PdC 200 mg/kg i.p. twice daily
Procedure: Twenty-one Balb/C female mice weighing approximately 20 grams each received a daily intraperitoneal injection of Ara-C (100 mg/kg) for five days. These mice were divided into three treatment groups: oral administration of water (controls); oral administration of DAdC (411 mg/kg/treatment); and intraperitoneal administration of PdC (200 mg/kg/treatment in 0.2% Tween 80). Mice were treated with either water, DAdC, or PdC twice daily, at 9 a.m. and 6 p.m. Treatment volume in each case was 0.2 ml. An additional seven mice received no Ara-C and no treatment at all (basals).
On days seven and eleven following 5-FU administration, blood (0.2–0.3 ml) was collected from the seven mice in each group by retro-orbital bleeding into EDTA for subsequent differential blood cell counting. Mice were sacrificed by cervical dislocation, and their spleens removed and weighed.

[7] = system: hematopoietic system (AZT toxicity); test: Oral DAdC vs hematopoietic toxicity of i.p. AZT in DBA mice (Example 10); type: in vivo, female DBA mice
Procedure: AZT (100 mg/kg i.p.) was given three times daily at 9 a.m., 4 p.m., and at 10 p.m. to twenty-eight female DBA mice weighing approximately 20 grams each. Three times each day, at 9 a.m., 4 p.m., and 10 p.m., animals were treated with either water (control) or DAdC (411 mg/kg/treatment) by oral intubation. Treatment volume was 0.2 ml. One additional group of fourteen mice was not given AZT or any treatment (basal).
During the first few days of treatment a total of eight mice died from accidents occurring during oral administration of the water and DAdC. Therefore, the number of animals in the control group and the DAdC group were reduced on the days of sacrifice as follows: On day 6 there were four mice in the control group and five in the DAdC group; on day 13 there were seven in the control group and three in the DAdC group. The number of basal animals was seven at both time points.
as §1, with “days six and” for “day”, “bleeding into” for “bleeding-into”

[8] = day seven after 5-FU, equimolar i.p. doses
[9] = 6 days after single oral tegafur 400 mg/kg
[10] = AZT for six days + oral DAdC 411 mg/kg/treatment
[11] = AZT for thirteen days + oral DAdC 411 mg/kg/treatment
[12] = AZT for thirteen days + DAdC 300 mg/kg/treatment p.o.

CCCCCCCC(=O)OCC1OC(n2ccc(=O)[nH]c2=O)C(O)C1O (stereo not shown) [Oct-U]
overall effect at the dose used ([1]; after 5-FU, OU 455 mg/kg/treatment i.p.): somewhat detrimental | Lym [2]: 4.62 ± .29 thousands per microliter | Marrow [2]: 7.73 ± .68 thousands per microliter | Neut [2]: 1.19 ± .22 thousands per microliter | PLT [2]: 1243 ± 59 K/μl | RBC [2]: 8.13 ± .14 M/μl | Spleen weight [2]: 87.2 ± 3.7 mg | WBC [2]: 5.96 ± .47 thousands per microliter

valeryluridine [VU]
Spleen weights ([1]; equimolar i.p. doses): 139.4±8.0 | Spleen weight [1]: 69.1 ± 1.7 mg | Lymphocyte counts [1, 8]: 6.42±0.49 ×10^3 per microliter | Platelet counts [1, 8]: 825.7±26.7 ×10^3 per microliter | Total neutrophil counts [1, 8]: 0.141±0.027 ×10^3 per microliter | White blood cell counts [1, 8]: 6.57±0.49 ×10^3 per microliter | HCT % ([1]; equimolar i.p. doses): 38.31 ± 0.8 % | Lym ([1]; equimolar i.p. doses): 5.2 ± .4 K/μl | Neut ([1]; equimolar i.p. doses): .97 ± K/μl | RBC ([1]; equimolar i.p. doses): 7.83 ± .1 M/μl | WBC ([1]; equimolar i.p. doses): 6.31 ± .42 K/μl

O=c1[nH]c(=O)n(C2CCCO2)cc1F (stereo not shown) [Tegafur]
Body weight [3, 9]: 18.2 ± 0.7 grams | Neutrophils [3, 9]: 0.40 ± 0.085 K/μl | Platelets [3, 9]: 956 ± 30 K/μl | loss of body weight compared to untreated (basal) animals ([3]; oral tegafur 400 mg/kg): 7%

benzoyluridine [BU]
Spleen weights ([1]; equimolar i.p. doses): 126.9±12.3 | Platelet counts [1, 8]: 829.6 ×10^3 per microliter | HCT % ([1]; equimolar i.p. doses): 36.87 ± 0.6 % | Lym ([1]; equimolar i.p. doses): 5.1 ± .4 K/μl | Neut ([1]; equimolar i.p. doses): 1.04 K/μl | RBC ([1]; equimolar i.p. doses): 7.62 ± .1 M/μl | WBC ([1]; equimolar i.p. doses): 6.20 ± .49 K/μl

O=C1NC(O)CCN1[C@@H]1O[C@H](CO)[C@@H](O)[C@H]1O (stereo partly shown) [THU, Tetrahydrouridine, reference compound]
Total neutrophil counts [4]: 1.16±0.15

O=c1[nH]cc(F)c(=O)[nH]1 [5-FU, 5-fluorouracil]
Mortality ([5]; 5-FU 150 mg/kg i.p. weekly x3 + vehicle (oil-water emulsion)): 10/10 | Mortality ([5]; 5-FU alone 150 mg/kg i.p. weekly x3, no rescue): 9/10

palmitoyldeoxycytidine [PdC]
Neut [6]: 1.22 ± .27 K/μl | PLT [6]: 327 ± 30 K/μl | Spleen [6]: 126.0 ± 5.3 milligrams | WBC [6]: 5.20 ± .35 K/μl

ethoxycarbonyluridine [ECU]
Spleen weight [1]: 75.7 ± 5.0 mg | Lymphocyte counts [1, 8]: 7.19±0.32 ×10^3 per microliter | White blood cell counts [1, 8]: 7.26±0.31 ×10^3 per microliter | HCT % ([1]; equimolar i.p. doses): 37.54 ± 1.0 % | Lym ([1]; equimolar i.p. doses): 4.8 ± .5 K/μl | Neut ([1]; equimolar i.p. doses): .66 ± K/μl | RBC ([1]; equimolar i.p. doses): 7.65 ± .2 M/μl | WBC ([1]; equimolar i.p. doses): 5.51 ± .64 K/μl

CC(=O)OC[C@H]1O[C@@H](n2ccc(N)nc2=O)C[C@@H]1OC(C)=O [DAdC, diacetyldeoxycytidine]
Neut [6]: 0.42 ± .05 K/μl | PLT [6]: 728 ± 64 K/μl | Spleen [6]: 87.8 ± 3.5 milligrams | WBC [6]: 5.00 ± .42 K/μl | HCT [7, 10]: 40.84 ± 1.35 | HGB [7, 10]: 13.96 ± .40 | RBC [7, 10]: 9.49 ± .32 | Reticulocytes [7, 10]: .205 ± .075 | HCT [7, 11]: 41.53 ± 1.17 | HGB [7, 11]: 13.97 | RBC [7, 11]: 9.16 ± .32 | Reticulocytes [7, 11]: .814 ± .069 | reduction in bone marrow cellularity vs basals ([7]; day six, AZT 100 mg/kg i.p. three times daily + oral DAdC 411 mg/kg/treatment): 2.5% | Platelet counts ([7]; day thirteen, AZT + oral DAdC 411 mg/kg/treatment): 769±32 | RBC ([4]; AZT 100 mg/kg i.p. three times daily for thirteen days + DAdC 300 mg/kg/treatment p.o.): 8.26 ± .13 | HCT [4, 12]: 39.51 ± 0.61 | HGB [4, 12]: 14.97 ± .15 | Retic. [4, 12]: .059 ± .006 | Total neutrophil counts [4]: 1.39±0.14
